# From patent publication US20060200330A1, “Methods and systems for modeling and simulating biochemical pathways” (KOREA INSTITUTE OF SCIENCE AND TECHNOLOGY, priority 2005, published 2006)
# Assays:
# [1] = test system: MEK; assay: Western blot of MEK activation (anti-phosphorylated MEK) in PC12 cells; format: cell-based; details: PC12 cells, U0126 0.01-10 μM, 100 ng/ml EGF or NGF for 5 min
# Protocol: (§1) In order to confirm the simulation, PC12 cells treated with EGF (100 ng/ml) were used to measure the time data tracking the activation levels of MEK and ERK, respectively. […] Western blot analysis was performed as follows. PC12 cells were treated with 100 ng/ml EGF for 0 to 120 min. Dissolved protein samples were reacted by using anti-phosphorylated MEK antibodies and anti-diphosphorylated ERK antibodies. Then, the resultant was reacted with anti-HRP (horse radish peroxidase)-conjugated secondary antibodies and confirmed the presence of a band via ECL chemoluminscence.
# (§2) PC12 cells treated with EGF or nerve growth factor (NGF) were examined to evaluate the efficacies of PD09859 (10 μM) and U0126 (0.01-10 μM) in respect of MEK and ERK activation. Western blot analysis was performed as follows. PC12 cells treated with PD09859 and U0126 were treated with 100 ng/ml of EGF or NGF for 5 min. Then, the resulting protein sample was separated by performing SDS/PAGE, and then blotted by using anti-phosphorylated MEK and anti-diphosphoryated ERK antibodies. Again, the resultant was blotted by using anti-HRP (horseradish peroxidase) conjugated secondary antibodies and identified in bands by ECL chemo-luminescence.
# [2] = test system: MAPK pathway; details: cited from earlier work; for effect on ERK activation, as reported: literature report
# [3] = test system: ERK; assay: Western blot of ERK activation (anti-diphosphorylated ERK) in PC12 cells; format: cell-based; details: PC12 cells, PD09859 10 μM or U0126 0.01-10 μM, 100 ng/ml EGF or NGF for 5 min
# Protocol: as §1, §2
Compound,MEK activation [1],"inhibition of MAPK pathway compared with the other inhibitor ([2]; U0126 versus PD09859, literature report)","effect on ERK activation, as reported [2]",ERK activation / intracellular ERK phosphorylation [3]
N#CC(=C(/N)Sc1ccccc1N)/C(C#N)=C(\N)Sc1ccccc1N [U0126],not suppressed,more effective and specific,suppress ERK activation,suppressed by the MEK activity dose-dependently
COc1cccc(-c2cc(=O)c3ccccc3o2)c1N [PD98059],,,suppress ERK activation,not suppressed
